Measured values taken from ChEMBL document CHEMBL4052663, “Synthesis, antiviral evaluation and molecular docking studies of N4-aryl substituted/unsubstituted thiosemicarbazones derived from 1-indanones as potent anti-bovine viral diarrhea virus agents” (Bioorg Med Chem, 2017).
Active and inactive are the calls of the source. The calls are words filed in the database; no cut-off is given here.

Legend:
[1] = system: Bovine viral diarrhea virus 1; assay: Antiviral activity against wild type Bovine viral diarrhea virus 1 ATCC VR 534 infected in bovine MDBK cells assessed as reduction in virus induced cytopathic effect after 72 hrs by MTS/PES assay; format: functional, cell-based; details: Bovine viral diarrhea virus isolates and strains, ATCC VR 534, MDBK
[2] = Antiviral activity against Bovine viral diarrhea virus 1-NADL infected in bovine MDBK cells assessed as reduction in plaque forming units after 72 hrs by crystal violet staining-based assay; format: functional, cell-based; details: Bovine viral diarrhea virus isolates and strains
[3] = system: Bovine viral diarrhea virus 1; assay: Antiviral activity against TSC-resistant Bovine viral diarrhea virus 1 harboring NS5B N264D/A392E double mutant infected in bovine MDBK cells assessed as reduction in virus induced cytopathic effect after 72 hrs by MTS/PES assay; format: functional, cell-based; details: Bovine viral diarrhea virus isolates and strains
[4] = Cytotoxicity against bovine MDBK cells assessed as reduction in cell viability after 3 days by MTS/PES assay; format: cell-based, Bos taurus; details: cattle
[5] = system: Bovine viral diarrhea virus 1; assay: Ratio of EC50 for TSC-resistant Bovine viral diarrhea virus type 1 harboring NS5B N264D/A392E double mutant to EC50 for wild type Bovine viral diarrhea virus type 1 ATCC VR 534; format: functional
[6] = Selectivity index, ratio of CC50 for bovine MDBK cells to EC50 for Bovine viral diarrhea virus 1-NADL; format: toxicity; details: cattle, read-out: Ratio CC50/EC50
[7] = system: Bovine viral diarrhea virus 1; assay: Antiviral activity against Bovine viral diarrhea virus 1 ATCC VR 534 infected in bovine MDBK cells assessed as reduction in virus induced cytopathic effect at 25 uM treated up to 4 hrs post infection measured after 48 hrs by MTS/PES assay; format: functional, cell-based

Row | SMILES | EC50 [1] | EC50 [2] | EC50 [3] | CC50 at 72 h [4] | Ratio EC50 [5] | selectivity ratio [6] | inhibition [7]
1 | COc1cc2c(cc1OC)/C(=N/NC(=S)Nc1ccc([N+](=O)[O-])cc1)CC2 | 0.45 µM | 0.7 µM | > 10 µM | > 10 µM | >22 | > 14.3 | –
2 | COc1cc2c(cc1OC)/C(=N/NC(=S)Nc1ccc(C)cc1)CC2 | – | 8.8 µM | – | > 20 µM | – | > 2.3 | –
3 | Cc1cc(Br)c(C)c2c1/C(=N/NC(N)=S)CC2 | – | 7.4 µM | – | > 100 µM | – | > 13.5 | –
4 | O=[N+]([O-])c1ccc(NC(=S)N/N=C2\CCc3ccccc32)cc1 | – | > 10 µM | – | > 10 µM | – | – | –
5 | NC(=O)c1ncn([C@@H]2O[C@H](CO)[C@@H](O)[C@H]2O)n1 [RIBAVIRIN] | – | 7.7 µM | – | – | – | 7.1 | –
6 | Fc1ccc(NC(=S)N/N=C2\CCc3ccccc32)cc1 | – | > 20 µM | – | > 20 µM | – | – | –
7 | COc1cc2c(cc1OC)/C(=N/NC(=S)Nc1ccc(Cl)cc1)CC2 | – | 6.6 µM | – | > 10 µM | – | > 1.5 | –
8 | S=C(N/N=C1\CCc2ccccc21)Nc1ccccc1 | – | > 10 µM | – | > 10 µM | – | – | –
9 | COc1ccc(NC(=S)N/N=C2\CCc3cc(OC)c(OC)cc32)cc1 | – | 12.9 µM | – | > 20 µM | – | > 1.6 | –
10 | NC(=S)N/N=C1\CCc2c1cccc2[N+](=O)[O-] | – | 6.1 µM | – | 84.6 µM | – | 14.2 | –
11 | Cc1ccc(NC(=S)N/N=C2\CCc3ccccc32)cc1 | – | > 20 µM | – | > 20 µM | – | – | –
12 | COc1cc2c(cc1OC)/C(=N/NC(=S)Nc1ccccc1)CC2 | – | 8.4 µM | – | > 10 µM | – | > 1.2 | –
13 | NC(=S)N/N=C1\CCc2ccc([N+](=O)[O-])cc21 | 1.04 µM | 2.7 µM | 1.07 µM | > 25 µM | – | > 9.3 | Active
14 | COc1cc2c(cc1OC)/C(=N/NC(N)=S)CC2 | 1.95 µM | 3.8 µM | > 80 µM | > 80 µM | >41 | > 21.1 | –
15 | COc1cc2c(cc1OC)/C(=N/NC(=S)Nc1ccc(F)cc1)CC2 | – | 4 µM | – | > 20 µM | – | > 5 | –
16 | S=C(N/N=C1\CCc2ccccc21)Nc1ccc(Cl)cc1 | – | > 20 µM | – | > 20 µM | – | – | –
17 | NC(=S)N/N=C1\CCc2cc(F)ccc21 | – | 9 µM | – | 41.9 µM | – | 5.4 | –
18 | COc1ccc(NC(=S)N/N=C2\CCc3ccccc32)cc1 | – | > 10 µM | – | > 10 µM | – | – | –
